Measurements from ChEMBL document CHEMBL1143055, “2,3,5-Substituted tetrahydrofurans as cancer chemopreventives. Part 1: synthesis and anti-cancer activities of 5-hydroxymethyl-2,3-diaryl-tetrahydro-furan-3-ols” (2007).

Columns and labels:
[1] = system: SNB-75; assay: Antitumor activity against human SNB75 cells; format: functional
[2] = system: HOP-62; assay: Antitumor activity against human HOP62 cells; format: functional
[3] = system: CCRF-CEM; assay: Antitumor activity against human CCRF-CEM cells; format: functional
[4] = system: EKVX; assay: Antitumor activity against human EKVX cells; format: functional
[5] = system: SK-OV-3; assay: Antitumor activity against human SK-OV-3 cells; format: functional
[6] = system: HOP-92; assay: Antitumor activity against human HOP92 cells; format: functional
[7] = system: A549; assay: Antitumor activity against human A549 cells; format: functional
[8] = system: NCI-H23; assay: Antitumor activity against human NCI-H23 cells; format: functional
[9] = system: SNB-19; assay: Antitumor activity against human SNB19 cells; format: functional
[10] = system: NCI-H460; assay: Antitumor activity against human NCI-H460 cells; format: functional
[11] = system: SF-268; assay: Antitumor activity against human SF268 cells; format: functional
[12] = system: SK-MEL-28; assay: Antitumor activity against human SK-MEL-28 cells; format: functional
[13] = system: RXF 393; assay: Antitumor activity against human RXF393 cells; format: functional
[14] = system: SW-620; assay: Antitumor activity against human SW620 cells; format: functional
[15] = system: TK-10; assay: Antitumor activity against human TK10 cells; format: functional
[16] = system: HCT-15; assay: Antitumor activity against human HCT15 cells; format: functional
[17] = system: OVCAR-3; assay: Antitumor activity against human OVCAR-3 cells; format: functional
[18] = Antitumor activity against human […] cells; format: functional
[19] = system: HCC 2998; assay: Antitumor activity against human HCC2998 cells; format: functional
[20] = system: LOX IMVI; assay: Antitumor activity against human LOX IMVI cells; format: functional
[21] = Antitumor activity against human HL60 (TB) cells; format: functional, HL-60(TB); settings: HL-60
[22] = system: UACC-62; assay: Antitumor activity against human UACC62 cells; format: functional
[23] = Antitumor activity against human HS 578T cells; format: functional
[24] = system: PC-3; assay: Antitumor activity against human PC3 cells; format: functional
[25] = system: SF-539; assay: Antitumor activity against human SF539 cells; format: functional
[26] = system: 786-0; assay: Antitumor activity against human 786-0 cells; format: functional
[27] = system: NCI/ADR-RES; assay: Antitumor activity against human NCI/ADR-RES cells; format: functional
[28] = system: SK-MEL-5; assay: Antitumor activity against human SK-MEL-5 cells; format: functional
[29] = system: SN12C; assay: Antitumor activity against human SN12C cells; format: functional
[30] = system: ACHN; assay: Antitumor activity against human ACHN cells; format: functional
[31] = system: OVCAR-5; assay: Antitumor activity against human OVCAR5 cells; format: functional
[32] = system: DU-145; assay: Antitumor activity against human DU145 cells; format: functional
[33] = system: KM12; assay: Antitumor activity against human KM12 cells; format: functional
[34] = system: NCI-H522; assay: Antitumor activity against human NCI-H522 cells; format: functional
[35] = system: SR; assay: Antitumor activity against human SR cells; format: functional
[36] = system: OVCAR-8; assay: Antitumor activity against human OVCAR8 cells; format: functional
[37] = system: UO-31; assay: Antitumor activity against human UO31 cells; format: functional
[38] = system: OVCAR-4; assay: Antitumor activity against human OVCAR4 cells; format: functional
[39] = system: MCF7; assay: Antitumor activity against human MCF7 cells; format: functional
[40] = system: HCT-116; assay: Antitumor activity against human HCT116 cells; format: functional
[41] = system: K562; assay: Antitumor activity against human K562 cells; format: functional
[42] = system: IGROV-1; assay: Antitumor activity against human IGROV1 cells; format: functional
[43] = system: CAKI-1; assay: Antitumor activity against human CAKI-1 cells; format: functional
[44] = system: BT-549; assay: Antitumor activity against human BT549 cells; format: functional
[45] = system: MDA-MB-435; assay: Antitumor activity against human MDA-MB-435 cells; format: functional
[46] = system: U-251; assay: Antitumor activity against human U251 cells; format: functional
[47] = system: HT-29; assay: Antitumor activity against human HT29 cells; format: functional
[48] = system: MOLT-4; assay: Antitumor activity against human MOLT4 cells; format: functional
[49] = system: UACC-257; assay: Antitumor activity against human UACC257 cells; format: functional
[50] = system: COLO 205; assay: Antitumor activity against human COLO205 cells; format: functional
[51] = system: SF-295; assay: Antitumor activity against human SF295 cells; format: functional
[52] = Antitumor activity against human NCI-H322 cells; format: functional
[53] = system: RPMI-8226; assay: Antitumor activity against human RPMI8226 cells; format: functional
[54] = system: Malme-3M; assay: Antitumor activity against human MALME-3M cells; format: functional
[55] = system: A498; assay: Antitumor activity against human A498 cells; format: functional
[56] = system: NCI-H226; assay: Antitumor activity against human NCI-H226 cells; format: functional

Measured: GI50

CS(=O)(=O)c1ccc([C@H]2O[C@@H](CO)C[C@]2(O)c2ccc(S(C)(=O)=O)cc2)cc1 (relative stereo)
> 100 µM: [1] | [2] | [3] | [4] | [5] | [6] | [7] | [8] | [9] | [10] | [11] | [12] | [13] | [14] | [15] | [16] | [17] | [18] | [19] | [20] | [21] | [22] | [23] | [24] | [25] | [26] | [27] | [28] | [29] | [30] | [31] | [32] | [33] | [34] | [35] | [36] | [37] | [38] | [39] | [40] | [41] | [42] | [43] | [44] | [45] | [46] | [47] | [48] | [49] | [50] | [51] | [52] | [53] | [54] | [55] | [56]
